Data reported in US20240216412A1, “OXIDIZED NICOTINAMIDE ADENINE DINUCLEOTIDE (NAD+) PRECURSOR TREATMENT FOR HEART FAILURE ALLEVIATION INDEPENDENT OF MITOCHONDRIAL PROTEIN DEACETYLATION” (University of Washington, priority 2022, published 2024).

System: chronic pressure overload (TAC) induced heart failure in WT and Sirt3Ko mice
Assay: Transthoracic echocardiography after transverse aortic constriction (TAC) or sham surgery
Format: in vivo, mouse
Conditions: for EF / FS / IVS; s / LV Mass / LV Mass (corr.) / LV Vol; d / LV Vol; s / LVID; d / LVID; s / LVPW; d / LVPW; s: NR; for IVS; d: NR 500 mg/kg body weight daily for eight weeks
Text: The present disclosure provides boosting intracellular NAD^+ with nicotinamide riboside chloride (NR) to protect Sirtuin 3 (Sirt3) knockout mice from heart failure. NR is a natural NAD precursor that bypasses nicotinamide phosphoribosyltransferase (NAMPT) to stimulate intracellular NAD^+ synthesis via the Nrk reaction (Bieganowski and Brenner, 2004; Canto et al., 2012; Diguet et al., 2018; Trammell et al., 2016). […] Immunoblotting confirmed the absence of Sirt3 and increased lysine acetylation in mitochondrial extracts from the knockout hearts (FIG. 9A). Pressure overload was induced by transverse aortic constriction (TAC) surgery for 12 weeks. Intracellular NAD^+ level was increased when mice had already developed cardiac hypertrophy and dysfunction, to model a therapeutic approach (FIG. 1A). After 4 weeks of chronic pressure overload, cardiac function was assessed using trans-thoracic M-mode echocardiography.
Mice randomly received either NR (500 mg/kg body weight) (Canto et al., 2012) or vehicle saline daily for eight-weeks. Representative M-mode images for the echocardiography can be found in FIGS. 1C and 1D. Four weeks of chronic pressure overload caused similar declines in left ventricular fractional shortening (FS %) in mice randomized to NR or vehicle groups for either WT or Sirt3Ko (FIGS. 1E and 1F). […] Similar to NR treated WT, cardiac hypertrophy, left ventricular cavity dilation, and lung edema were less severe in Sirt3Ko TAO mice that received NR treatment (FIGS. 1B-1J). All echocardiography parameters can be found in Table 1 below.
All procedures involving animal use were approved by the Institutional Animal Care and Use Committee (IACUC) of the University of Washington. Wild-type mice (129S1/SvlmJ Stock No: 002448) and Sirtuin 3 knockout mice (129-Sirt3tm1.1Fwa/J Stock No: 012755) were purchased from Jackson Laboratories. All mice were housed at 22° C. with a 12-hr light, 12-hr dark cycle with free access to water and standard chow. Male mice were used for experiments in this study.
Transverse aortic constriction. Male mice (3-4 months old) underwent transverse aortic constriction (TAC) or sham surgery. Briefly, mice were anesthetized with an IP injection of 130 mg/kg ketamine and 8.8 mg/kg xylazine in saline. Mice were intubated with 20 G cannula and ventilated 140 breaths per minute by small animal TOPO ventilator (Kent Scientific). The aortic arch was exposed via a left thoracotomy and by carefully separating the thymus. A constriction of the transverse aorta was generated by tying a 6-0 Ethilon ligature against a 27-gauge blunt needle around the aorta between the brachiocephalic and left common carotid arteries. Promptly the needle was removed and the chest and skin were closed by 5-0 polypropylene suture. The animal was removed from ventilation and kept on a heating blanket during recovery from anesthesia. SR buprenorphine (0.05 mg/kg) was administered subcutaneously for analgesia. Sham operated mice underwent all the same procedures as TAC mice excluding the constriction of the aorta. All mice were monitored every 12 h during the first 72 h post-surgery, followed by daily visits over the next 4 weeks.
Transthoracic Echocardiography. Echocardiography of hearts was performed at indicated time after surgery using the VEVO 2100 high-frequency, high-resolution digital imaging system (VisualSonics) equipped with a MS400 Microscan Transducer on anesthetized mice (0.5%-2% isoflurane in 95% oxygen). Measurements were made when heart rate was >450 bpm. Cardiac function and geometry measurements were measured in parasternal short axis view. M-mode images were used for analysis and calculated by the average of at least three cardiac cycles and carried out in a blind fashion. Hearts were harvested at 12-week post-surgery for subsequent experiments and biochemical assays.

## NC(=O)c1ccc[n+]([C@@H]2O[C@H](CO)[C@@H](O)[C@H]2O)c1 [NR, Nicotinamide riboside chloride]
Sirt3Ko TAC mice, similar to NR treated WT
  Left ventricular cavity dilation: less severe
Sirt3Ko TAC mice, vs vehicle treatment
  Advances of heart failure: protected the Sirt3Ko TAO mice from advances of heart failure
Sirt3Ko, Sham
  EF: 71.3%
  FS: 39.7%
  IVS; s: 1.49 mm
  LV Mass: 146.9 mg
  LV Mass (corr.): 117.5 mg
  LV Vol; d: 42.0 µL
  LV Vol; s: 12.1 µL
  LVID; d: 3.21 mm
  LVID; s: 1.94 mm
  LVPW; d: 1.30 mm
  LVPW; s: 1.69 mm
  IVS; d: 1.04 mm
Sirt3Ko, TAC
  EF: 59.2%
  FS: 30.9%
  IVS; s: 1.67 mm
  LV Mass: 168.9 mg
  LV Mass (corr.): 135.1 mg
  LV Vol; d: 47.8 µL
  LV Vol; s: 19.8 µL
  LVID; d: 3.39 mm
  LVID; s: 2.35 mm
  LVPW; d: 1.22 mm
  LVPW; s: 1.51 mm
  IVS; d: 1.22 mm
WT TAC mice, 8-week treatment
  Fractional shortening (FS %): preserved FS %
Wildtype, Sham
  EF: 78.9%
  FS: 46.3%
  IVS; s: 1.72 mm
  LV Mass: 141.9 mg
  LV Mass (corr.): 113.5 mg
  LV Vol; d: 37.3 µL
  LV Vol; s: 7.9 µL
  LVID; d: 3.07 mm
  LVID; s: 1.65 mm
  LVPW; d: 1.27 mm
  LVPW; s: 1.64 mm
  IVS; d: 1.12 mm
Wildtype, TAC
  EF: 62.5%
  FS: 32.7%
  IVS; s: 1.78 mm
  LV Mass: 183.9 mg
  LV Mass (corr.): 147.1 mg
  LV Vol; d: 36.7 µL
  LV Vol; s: 13.7 µL
  LVID; d: 3.04 mm
  LVID; s: 2.04 mm
  LVPW; d: 1.52 mm
  LVPW; s: 1.85 mm
  IVS; d: 1.30 mm
